Here are results for ten molecules from ChEMBL document CHEMBL3137667, “[Drug-induced liver injury; fourteenth updated edition of the bibliographic database of liver injuries and related drugs]” (Gastroenterol Clin Biol, 2004).

The conditions of data set [1]: human.
For data set [2] the following is noted: human. This is another data set of the same source.
The conditions of data set [3]: human, serum.
The conditions of data set [4]: human. The source holds these as a separate data set.
Data set [5] is described as follows: Comments (NB not yet translated). [column 'COMMENTAIRES' in source]. Conditions: human.
The conditions of data set [6]: human, serum, 4383 h.
A short description of data set [7]: Highest frequency of acute liver toxicity observed during clinical trials, expressed as a percentage. [column '% AIGUE' in source]. The following applies: human.
The conditions of data set [8]: human. The source holds these as a separate data set.
The conditions of data set [9]: human. The source holds these as a separate data set.
The conditions of data set [10]: human, serum. The source holds these as a separate data set.
The conditions of data set [11]: human. The source holds these as a separate data set.
A short description of data set [12]: Highest frequency of moderate liver toxicity observed during clinical trials, expressed as a percentage. [column '% BIOL' in source]. Conditions: human.
The conditions of data set [13]: human. This is another data set of the same source.
The conditions of data set [14]: human. The source holds these as a separate data set.
The conditions of data set [15]: human. This is another data set of the same source.
A short description of data set [16]: Times to onset, minimal and maximal, observed in the indexed observations. [column 'DELAI' in source]. The following applies: human.
The nature of data set [17]: Proposed mechanism(s) of liver damage. [column 'MEC' in source]. Conditions: human.
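Wherever Hepatotoxicity (association with vascular disease) is given: count of indexed literature references reporting vascular liver injury in humans, e.g. peliosis hepatitis, hepatic veno-occlusive disease or Budd-Chiari syndrome.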
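Wherever Hepatotoxicity (benign tumour) is given: value is a count of indexed literature references citing a benign tumour confirmed by histopathology.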
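Wherever Hepatotoxicity (choleostasis) is given: human cholestatic liver injury, shown by histopathology or by peak ALT or AST elevation over alkaline phosphatase ratio below 2, value counts indexed literature reports.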
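Wherever Hepatotoxicity (chronic liver disease) is given: chronic liver injury confirmed by histopathology or persistently raised serum aminotransferase activity beyond 6 months, value given as the count of indexed literature references.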
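Wherever Hepatotoxicity (cirrhosis) is given: value is a count of indexed literature references reporting cirrhosis confirmed by histopathology.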
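Wherever Hepatotoxicity (cytolytic) is given: human cytolytic liver injury, shown by histopathology or by a ratio above 5 of peak ALT or AST elevation to alkaline phosphatase elevation, value counts indexed references.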
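Wherever Hepatotoxicity (granulomatous hepatitis) is given: value is a count of indexed literature references reporting granulomatous liver disease confirmed by histopathology.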
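Wherever Hepatotoxicity (malignant tumour) is given: malignant tumour confirmed by histopathology, value gives the count of indexed literature references reporting it.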
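Wherever Hepatotoxicity (severe hepatitis) is given: human clinical data: severe hepatitis, meaning potentially life-threatening liver failure or clinically observed cases, the value counts how many indexed literature references report it.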
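Wherever Hepatotoxicity (steatosis) is given: steatosis confirmed by histopathology, value is the count of indexed references.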

Turning to `CC[C@H](c1ccc(O)cc1)[C@@H](CC)c1ccc(O)cc1` [HEXESTROL], the “Hepatotoxicity (cytolytic)” value in [1] is listed as 0. Also, in data set [2], the “Hepatotoxicity (choleostasis)” value came to 0. Moreover, the “Hepatotoxicity (moderate)” value in [3] is on record as 0; in [12], 0%. The “Hepatotoxicity (benign tumour)” value in [4] was found to be 0. Also, the “Hepatotoxicity (comment)” value in [5] is on record as “NASH”. The “Hepatotoxicity (chronic liver disease)” value in data set [6] is reported as 1. Moreover, the “Hepatotoxicity (acute)” value is given as 0% in data set [7] and 0 in data set [10]. Besides, the “Hepatotoxicity (severe hepatitis)” value in data set [8] stood at 0. In data set [9], the “Hepatotoxicity (cirrhosis)” value worked out at 0. Moreover, the “Hepatotoxicity (granulomatous hepatitis)” value in data set [11] stood at 0. The “Hepatotoxicity (malignant tumour)” value in data set [13] was found to be 0. In addition, the “Hepatotoxicity (association with vascular disease)” value in data set [14] stood at 0. In addition, the “Hepatotoxicity (steatosis)” value in data set [15] amounted to 1.

In the case of `CC(O)CCC(=O)c1ccoc1` (centres undefined), the “Hepatotoxicity (cytolytic)” value in [1] is 0. The “Hepatotoxicity (choleostasis)” value in data set [2] is 0. The “Hepatotoxicity (time to onset)” value in [16] was 2 days - 8 days. In addition, the “Hepatotoxicity (moderate)” value is reported as 0 in data set [3] and 0% in [12]. Besides, the “Hepatotoxicity (benign tumour)” value in data set [4] is 0. In addition, the “Hepatotoxicity (mechanism)” value in data set [17] was “Dose-dependant”. In addition, in data set [6], the “Hepatotoxicity (chronic liver disease)” value was determined as 0. Moreover, the figures for the “Hepatotoxicity (acute)” value in data set [7] and in data set [10] were 11.3% and 1, respectively. The “Hepatotoxicity (severe hepatitis)” value in data set [8] is on record as 1. In [9], the “Hepatotoxicity (cirrhosis)” value amounted to 0. Further, the “Hepatotoxicity (granulomatous hepatitis)” value in data set [11] turned out to be 0. Besides, the “Hepatotoxicity (malignant tumour)” value in data set [13] was found to be 0. In data set [14], the “Hepatotoxicity (association with vascular disease)” value worked out at 0. In addition, the “Hepatotoxicity (steatosis)” value in data set [15] is reported as 0.

As for `CC12CCC(CC1=O)C2(C)C` (centres undefined) [CAMPHOR], the “Hepatotoxicity (cytolytic)” value in data set [1] is on record as 1. Further, the “Hepatotoxicity (choleostasis)” value in data set [2] stood at 0. The “Hepatotoxicity (time to onset)” value in data set [16] is on record as 3 days. Moreover, the “Hepatotoxicity (moderate)” value is 0 in [3] and 0% in [12]. Moreover, in [4], the “Hepatotoxicity (benign tumour)” value worked out at 0. For the same molecule, the “Hepatotoxicity (mechanism)” value in [17] is given as “Dose-dependant”. Also, the “Hepatotoxicity (chronic liver disease)” value in [6] is 0. Further, the “Hepatotoxicity (acute)” value came to 0% in [7] and 1 in data set [10]. Besides, the “Hepatotoxicity (severe hepatitis)” value in [8] came out at 0. In data set [9], the “Hepatotoxicity (cirrhosis)” value is 0. Moreover, the “Hepatotoxicity (granulomatous hepatitis)” value in [11] was found to be 0. Moreover, the “Hepatotoxicity (malignant tumour)” value in data set [13] is given as 0. For the same molecule, the “Hepatotoxicity (association with vascular disease)” value in [14] was determined as 0. In addition, the “Hepatotoxicity (steatosis)” value in data set [15] is reported as 0.

As for `C[C@@H]1C[C@H]2[C@@H]3CCC4=CC(=O)C=C[C@]4(C)C3=CC[C@]2(C)[C@H]1C(=O)CN1CCN(c2cc(N3CCCC3)nc(N3CCCC3)n2)CC1` [TIRILAZAD], the “Hepatotoxicity (cytolytic)” value in [1] turned out to be 0. In data set [2], the “Hepatotoxicity (choleostasis)” value turned out to be 0. The “Hepatotoxicity (time to onset)” value in data set [16] is given as 3 days - 10 days. Also, the “Hepatotoxicity (moderate)” value turned out to be 2 in data set [3] and 8.5% in [12]. The “Hepatotoxicity (benign tumour)” value in data set [4] came out at 0. In data set [17], the “Hepatotoxicity (mechanism)” value is given as “Dose-dependant”. Moreover, the “Hepatotoxicity (chronic liver disease)” value in data set [6] is 0. The “Hepatotoxicity (acute)” value in [7] is 0%; in [10], 0. Moreover, the “Hepatotoxicity (severe hepatitis)” value in data set [8] came to 0. Further, the “Hepatotoxicity (cirrhosis)” value in data set [9] came out at 0. The “Hepatotoxicity (granulomatous hepatitis)” value in [11] worked out at 0. Further, the “Hepatotoxicity (malignant tumour)” value in data set [13] is 0. Besides, in data set [14], the “Hepatotoxicity (association with vascular disease)” value turned out to be 0. Moreover, in data set [15], the “Hepatotoxicity (steatosis)” value is on record as 0.

Turning to `c1ccc(C2(N3CCCCC3)CCCCC2)cc1` [PHENCYCLIDINE], the “Hepatotoxicity (cytolytic)” value in [1] is 2. Also, the “Hepatotoxicity (choleostasis)” value in [2] stood at 0. Moreover, the “Hepatotoxicity (time to onset)” value in data set [16] is given as 6 hours - 3 days. The “Hepatotoxicity (moderate)” value in data set [3] came out at 1; in data set [12], 49.9%. For the same molecule, the “Hepatotoxicity (benign tumour)” value in data set [4] stood at 0. Further, in [17], the “Hepatotoxicity (mechanism)” value is given as “Dose-dependant”. In addition, the “Hepatotoxicity (chronic liver disease)” value in data set [6] amounted to 0. Further, the “Hepatotoxicity (acute)” value in data set [7] is 0%; in [10] it was 2. Further, the “Hepatotoxicity (severe hepatitis)” value in [8] is 2. Moreover, the “Hepatotoxicity (cirrhosis)” value in [9] is given as 0. In data set [11], the “Hepatotoxicity (granulomatous hepatitis)” value came to 0. In [13], the “Hepatotoxicity (malignant tumour)” value came to 0. The “Hepatotoxicity (association with vascular disease)” value in [14] was 0. Further, the “Hepatotoxicity (steatosis)” value in [15] was found to be 0.

Consider `CC1=C(C(=O)O)N2C(=O)[C@@H](NC(=O)[C@H](N)c3ccccc3)[C@H]2SC1` [CEPHALEXIN ANHYDROUS], for which the “Hepatotoxicity (cytolytic)” value in [1] was determined as 3. For the same molecule, in data set [2], the “Hepatotoxicity (choleostasis)” value is on record as 4. In data set [16], the “Hepatotoxicity (time to onset)” value amounted to 1 week - 9 days. Also, the “Hepatotoxicity (moderate)” value came out at 4 in data set [3] and 4.8% in data set [12]. For the same molecule, the “Hepatotoxicity (benign tumour)” value in data set [4] turned out to be 0. Moreover, the “Hepatotoxicity (mechanism)” value in [17] is given as “Allergic”. The “Hepatotoxicity (chronic liver disease)” value in data set [6] turned out to be 0. Besides, the “Hepatotoxicity (acute)” value was determined as 0% in data set [7] and 6 in [10]. In [8], the “Hepatotoxicity (severe hepatitis)” value turned out to be 2. Moreover, the “Hepatotoxicity (cirrhosis)” value in data set [9] is listed as 0. Besides, in data set [11], the “Hepatotoxicity (granulomatous hepatitis)” value was 1. Also, in [13], the “Hepatotoxicity (malignant tumour)” value came out at 0. Moreover, the “Hepatotoxicity (association with vascular disease)” value in data set [14] was 0. Moreover, the “Hepatotoxicity (steatosis)” value in data set [15] is recorded as 0.

Regarding `CC1CCc2cc(F)cc3c(=O)c(C(=O)O)cn1c23` (centres undefined) [FLUMEQUINE], the “Hepatotoxicity (cytolytic)” value in [1] was 0. Moreover, in data set [2], the “Hepatotoxicity (choleostasis)” value amounted to 0. Moreover, the “Hepatotoxicity (time to onset)” value in data set [16] is 24 days. The “Hepatotoxicity (moderate)” value was determined as 0 in [3] and 0% in data set [12]. Further, in [4], the “Hepatotoxicity (benign tumour)” value is reported as 0. Further, the “Hepatotoxicity (mechanism)” value in [17] was “Allergic”. In addition, the “Hepatotoxicity (chronic liver disease)” value in data set [6] came to 0. Further, the “Hepatotoxicity (acute)” value turned out to be 0% in data set [7] and 0 in [10]. Moreover, the “Hepatotoxicity (severe hepatitis)” value in [8] was found to be 0. Further, the “Hepatotoxicity (cirrhosis)” value in data set [9] amounted to 0. Moreover, in [11], the “Hepatotoxicity (granulomatous hepatitis)” value was 1. Moreover, in data set [13], the “Hepatotoxicity (malignant tumour)” value is given as 0. In data set [14], the “Hepatotoxicity (association with vascular disease)” value worked out at 0. For the same molecule, the “Hepatotoxicity (steatosis)” value in [15] is reported as 0.

In the case of `CC(C)[C@H](N)C(=O)OCCOCn1cnc2c(=O)[nH]c(N)nc21` [VALACYCLOVIR], the “Hepatotoxicity (cytolytic)” value in [1] is recorded as 1. For the same molecule, in [2], the “Hepatotoxicity (choleostasis)” value stood at 1. Moreover, the “Hepatotoxicity (time to onset)” value in data set [16] turned out to be 10 days. For the same molecule, the “Hepatotoxicity (moderate)” value in data set [3] was 2; in data set [12] it was 17.6%. Also, the “Hepatotoxicity (benign tumour)” value in data set [4] amounted to 0. The “Hepatotoxicity (mechanism)” value in data set [17] is listed as “Dose-dependant”. In addition, the “Hepatotoxicity (chronic liver disease)” value in data set [6] amounted to 0. Moreover, the “Hepatotoxicity (acute)” value in data set [7] is 0%; in data set [10], 1. For the same molecule, in data set [8], the “Hepatotoxicity (severe hepatitis)” value is reported as 0. The “Hepatotoxicity (cirrhosis)” value in data set [9] worked out at 0. Also, the “Hepatotoxicity (granulomatous hepatitis)” value in [11] was determined as 0. For the same molecule, the “Hepatotoxicity (malignant tumour)” value in data set [13] turned out to be 0. Further, the “Hepatotoxicity (association with vascular disease)” value in [14] turned out to be 0. For the same molecule, the “Hepatotoxicity (steatosis)” value in data set [15] is reported as 0.

On to `CC(c1cc2ccccc2s1)N(O)C(N)=O` (centres undefined) [ZILEUTON], for which the “Hepatotoxicity (cytolytic)” value in data set [1] stood at 1. For the same molecule, the “Hepatotoxicity (choleostasis)” value in [2] amounted to 0. Besides, in data set [16], the “Hepatotoxicity (time to onset)” value was found to be 24 days. Besides, the “Hepatotoxicity (moderate)” value in data set [3] is recorded as 8; in data set [12], 16.7%. The “Hepatotoxicity (benign tumour)” value in data set [4] was determined as 0. Also, the “Hepatotoxicity (mechanism)” value in [17] is reported as “Dose-dependant”. Besides, the “Hepatotoxicity (chronic liver disease)” value in data set [6] came out at 0. The “Hepatotoxicity (acute)” value amounted to 0% in [7] and 2 in data set [10]. Moreover, the “Hepatotoxicity (severe hepatitis)” value in data set [8] was 0. In addition, the “Hepatotoxicity (cirrhosis)” value in data set [9] worked out at 0. Moreover, the “Hepatotoxicity (granulomatous hepatitis)” value in data set [11] is listed as 0. In addition, in [13], the “Hepatotoxicity (malignant tumour)” value is given as 0. For the same molecule, the “Hepatotoxicity (association with vascular disease)” value in data set [14] is 0. In addition, the “Hepatotoxicity (steatosis)” value in [15] was 0.

As to `Cc1ccc(O)c([C@H](CCN(C(C)C)C(C)C)c2ccccc2)c1` [TOLTERODINE], the “Hepatotoxicity (cytolytic)” value in data set [1] is reported as 1. In addition, the “Hepatotoxicity (choleostasis)” value in data set [2] is listed as 1. For the same molecule, the “Hepatotoxicity (time to onset)” value in data set [16] is reported as 18 days. The “Hepatotoxicity (moderate)” value stood at 0 in [3] and 0% in data set [12]. In data set [4], the “Hepatotoxicity (benign tumour)” value worked out at 0. In addition, the “Hepatotoxicity (mechanism)” value in data set [17] was “Allergic”. The “Hepatotoxicity (chronic liver disease)” value in data set [6] was found to be 0. Besides, the “Hepatotoxicity (acute)” value is listed as 0% in data set [7] and 1 in [10]. In addition, the “Hepatotoxicity (severe hepatitis)” value in data set [8] was 0. The “Hepatotoxicity (cirrhosis)” value in data set [9] is on record as 0. The “Hepatotoxicity (granulomatous hepatitis)” value in [11] is reported as 0. Moreover, the “Hepatotoxicity (malignant tumour)” value in [13] is listed as 0. For the same molecule, the “Hepatotoxicity (association with vascular disease)” value in data set [14] is recorded as 0. Besides, the “Hepatotoxicity (steatosis)” value in data set [15] is 0.
